# Results from patent publication US11044911B2, “Phenoxyurea compound and pest control agent” (Nippon Soda Co., Ltd., priority 2018, dated 2021).
# Tests used:
# [1] = system: cucumber plants; assay: Test Example 14: phytotoxicity test on cucumber plants; type: in vivo; settings: 300 ppm spray; for Cucumber; 1.5-leaf stage After 14 days Leaf Phytotoxicity index: index 0 (no phytotoxicity) to 10 (plant death)
# Protocol: A test for phytotoxicity on cucumber plants was conducted as follows. A sufficient amount of chemical having a compound concentration of 300 ppm was sprayed onto cucumber plants at the 1.5-leaf stage using a glass nozzle, and they were left to stand in a greenhouse. The presence or absence of phytotoxicity was investigated after being left to stand for 14 days.
# (§1) The symptoms of phytotoxicity were deformation and discoloration of leaves.
# [2] = system: eggplants; assay: Test Example 14: phytotoxicity test on eggplants; type: in vivo, eggplant; settings: 300 ppm spray; for Eggplant; 6- to 7-leaf stage After 14 days Leaf Phytotoxicity index: index 0 (no phytotoxicity) to 10 (plant death)
# From the text: A sufficient amount of chemical having a compound concentration of 300 ppm was sprayed onto eggplants at the 6- to 7-leaf stage using a glass nozzle, and they were left to stand in a greenhouse. The presence or absence of phytotoxicity was investigated after being left to stand for 14 days.
# as §1
# [3] = system: drug-resistant strains of Tetranychus urticae; assay: Test Example 13: efficacy test against drug-resistant strains of Tetranychus urticae; type: in vivo; settings: 10 days
# From the text: (§2) 5 parts by weight of the compound of the present invention, 93.6 parts by weight of dimethylformamide and 1.4 parts by weight of polyoxyethylene alkylaryl ether were mixed and dissolved to prepare an emulsion (I) containing 5% of an active ingredient.
# (§3) Insecticidal rate (%)=(number of dead insects/number of tested insects)×100
# (§4) Efficacy tests against seven drug-resistant strains of Tetranychus urticae collected from various parts of Japan (one strain from Shizuoka Prefecture, Aomori Prefecture and Fukuoka Prefecture, and two strains from Chiba Prefecture and Nagano Prefecture) were conducted in the following manner.
# (§5) 8 adult females of drug-resistant strains of spider mites were inoculated on kidney bean plant leaves placed in a petri dish. Then, the emulsion (I) was diluted with water so that the concentration of the compound was 37.5 ppm or 9.4 ppm to obtain a chemical. This chemical was sprayed onto the kidney bean plant leaves with a rotary spray tower. The kidney bean plant leaves were placed in a thermostatic chamber at a temperature of 25° C. and a humidity of 65%. The life and death of the spider mite were investigated when 10 days had passed after the spraying, and the insecticidal rate was calculated.
# [4] = system: drug-resistant strain of Panonychus citri collected in Wakayama Prefecture; assay: Test Example 13: efficacy test against drug-resistant strain of Panonychus citri; type: in vivo; settings: 10 days, corrected insecticidal rate
# Protocol: as §2, §3
# (§6) In addition, an efficacy test against a drug-resistant strain of Panonychus citri collected in Wakayama Prefecture was conducted in the following manner.
# 8 adult females of a drug resistant strain of Panonychus citri were inoculated on mandarin orange leaves placed in a petri dish. Then, the emulsion (I) was diluted with water so that the concentration of the compound was 37.5 ppm or 9.4 ppm to obtain a chemical. This chemical was sprayed onto the mandarin orange leaves with a rotary spray tower. The mandarin orange leaves were placed in a thermostatic chamber at a temperature of 25° C. and a humidity of 65%. The life and death of the spider mite were investigated when 10 days had passed after the spraying, and the corrected insecticidal rate was calculated.
# [5] = system: drug resistant strains of spider mites; assay: Test Example 13: summary over all drug resistant strains of spider mites; type: in vivo, Tetranychus urticae, Panonychus citri; settings: 9.4 ppm, all strains tested
# Protocol: as §4, §5, §6
# 8 adult females of a drug resistant strain of Panonychus citri were inoculated on mandarin orange leaves placed in a petri dish. […] The life and death of the spider mite were investigated when 10 days had passed after the spraying, and the corrected insecticidal rate was calculated.
# [6] = system: Tetranychus urticae; assay: Test Example 10: efficacy test against Tetranychus urticae (soil irrigation test); type: in vivo; settings: 25 ml of 400 ppm, strawberry seedling, 19 days after inoculation
# Protocol: as §2
# The emulsion (I) was diluted with tap water to prepare a drug solution having a concentration of 400 ppm. A plastic potted strawberry seedling was subjected to a plant foot irrigation treatment with 25 ml of the drug solution, and placed in a thermostatic chamber at a temperature of 25° C. and a humidity of 60%. Three days after the irrigation treatment, 15 adult females of Tetranychus urticae were inoculated on each seedling. The number of surviving insects 19 days after inoculation was investigated, and the control value was obtained by the following formula. The test was repeated twice. Control value (%)=100−{(Nt)/(Nc)×100}
# The letters in the formula represent the following.
# Nc: Number of surviving insects in the untreated group
# Nt: Number of surviving insects in the treated group
SMILES,Cucumber; 1.5-leaf stage After 14 days Leaf Phytotoxicity index ([1]; Repetition A),Cucumber; 1.5-leaf stage After 14 days Leaf Phytotoxicity index ([1]; Repetition B),Eggplant; 6- to 7-leaf stage After 14 days Leaf Phytotoxicity index ([2]; Repetition A),Eggplant; 6- to 7-leaf stage After 14 days Leaf Phytotoxicity index ([2]; Repetition B),"insecticidal rate, Low-susceptible Tetranychus urticae 1 from Nagano Prefecture ([3]; 9.4 ppm)","insecticidal rate, Low-susceptible Tetranychus urticae 2 from Chiba Prefecture ([3]; 9.4 ppm)","insecticidal rate, Low-susceptible Tetranychus urticae 2 from Nagano Prefecture ([3]; 9.4 ppm)","insecticidal rate, Low-susceptible Tetranyclus urticae 1 from Chiba Prefecture ([3]; 9.4 ppm)","insecticidal rate, Low-susceptible Tetranychus urticae 1 from Nagano Prefecture ([3]; 37.5 ppm)","insecticidal rate, Low-susceptible Tetranychus urticae 2 from Chiba Prefecture ([3]; 37.5 ppm)","insecticidal rate, Low-susceptible Tetranychus urticae 2 from Nagano Prefecture ([3]; 37.5 ppm)","insecticidal rate, Low-susceptible Tetranyclus urticae 1 from Chiba Prefecture ([3]; 37.5 ppm)","insecticidal rate, Low-susceptible Tetranychus urticae from Fukuoka Prefecture ([3]; 9.4 ppm)","insecticidal rate, Low-susceptible Tetranychus urticae from Fukuoka Prefecture ([3]; 37.5 ppm)","insecticidal rate, Low-susceptible Panonychus citri from Wakayama Prefecture ([4]; 9.4 ppm)","insecticidal rate, Low-susceptible Panonychus citri from Wakayama Prefecture ([4]; 37.5 ppm)","insecticidal rate, Low-susceptible Tetranychus urticae from Aomori Prefecture ([3]; 9.4 ppm)","insecticidal rate, Low-susceptible Tetranychus urticae from Aomori Prefecture ([3]; 37.5 ppm)",also measured
CCN(Oc1cc(Cl)cc(Br)c1)C(=O)NC(C)(C)C(=O)NCC(F)(F)F [Compound (D)],5,7,3,3,73%,72%,45%,32%,99%,87%,96%,77%,–,–,–,–,–,–,–
CCN(Oc1ccnc(C(F)(F)F)c1)C(=O)NC(C)(C)C(=O)NCC(F)(F)F [Compound (H)],–,–,2,2,–,–,–,–,–,–,–,–,45%,96%,78%,96%,–,–,–
"CCN(Oc1cc(Br)cc(C(F)(F)F)c1)C(=O)NC(C)(C)C(=O)NCC(F)(F)F [Compound 1-1, 2-{3-[3-Bromo-5-(trifluoromethyl)phenoxy]-3-ethylureido}-2-methyl-N-(2,2,2-trifluoroethyl)propanamide]",0,0,0,0,100%,97%,99%,100%,100%,100%,100%,100%,96%,99%,99%,100%,93%,100%,"efficacy against all drug resistant strains of spider mites [5]: ≥ 90; control value against Tetranychus urticae [6]: ≥ 90%; phytotoxicity on cucumber plants ([1]; 14 days): no phytotoxicity; phytotoxicity on eggplants ([2]; 14 days): no phytotoxicity; insecticidal rate, Low-susceptible Tetranychus urticae from Shizuoka Prefecture ([3]; 9.4 ppm): 96%; insecticidal rate, Low-susceptible Tetranychus urticae from Shizuoka Prefecture ([3]; 37.5 ppm): 100%"
CCN(Oc1cc(Br)nc(Br)c1)C(=O)NC(C)(C)C(=O)NCC(F)(F)F [Compound (G)],2,2,2,2,78%,58%,70%,53%,96%,91%,88%,98%,–,–,60%,95%,66%,97%,–
